From US8044089B2, “3-3-di-substituted-oxindoles as inhibitors of translation initiation” (President and Fellows of Harvard College, priority 2004, dated 2011)

Each compound was assayed on A549 lung cancer cells (assay: SRB growth inhibition of A549 lung cancer cells). Details: A549.
Assay type: cell-based, human

SMILES	growth inhibition of cancer cells (in words)
O=C(O)c1ccc(Cl)c2c1NC(=O)C2(c1ccccc1)c1ccccc1 [Compound 1392]	improved growth inhibition of cancer cells

Same assay, conditions: A549 lung cancer cells; unit inferred; read-out: SRB (IC50 for growth inhibition of A549 lung cancer cells)

SMILES	IC50 [µM]
COc1cccc(C2(c3ccccc3)C(=O)Nc3ccccc32)c1 (centres unmarked) [Compound 1293]	14
CC(C)Cc1ccc(C2(c3ccccc3)C(=O)Nc3ccccc32)cc1 (centres unmarked) [Compound 1297]	8
CCCCc1ccc(C2(c3ccccc3)C(=O)Nc3ccccc32)cc1 (centres unmarked) [Compound 1298]	8
CC(C)(C)c1ccc(C2(c3ccccc3)C(=O)Nc3ccccc32)cc1 (centres unmarked) [Compound 1349]	8
O=C1Nc2ccc(F)cc2C1(c1ccccc1)c1ccccc1 [Compound 1350]	9
COC(=O)c1ccc(Cl)c2c1NC(=O)C2(c1ccccc1)c1ccccc1 [Compound 1351]	> 20
O=C(O)c1ccc(Cl)c2c1NC(=O)C2(c1ccccc1)c1ccccc1 [Compound 1392]	4

Now from value to compound:

IC50 [µM]	SMILES
8	CCc1ccc(O)c(C2(c3ccccc3)C(=O)Nc3ccccc32)c1 (centres unmarked) [Compound 1285]
3	CCCCCc1ccc(O)c(C2(c3ccccc3)C(=O)Nc3ccccc32)c1 (centres unmarked) [Compound 1286]
3	CCCCc1ccc(O)c(C2(c3ccccc3)C(=O)Nc3ccccc32)c1 (centres unmarked) [Compound 1287]
3	CCCCCCc1ccc(O)c(C2(c3ccccc3)C(=O)Nc3ccccc32)c1 (centres unmarked) [Compound 1288]
3	O=C1Nc2ccccc2C1(c1ccccc1)c1cc(C2CCCC2)ccc1O (centres unmarked) [Compound 1289]
3	O=C1Nc2ccccc2C1(c1ccccc1)c1cc(C2CCCCC2)ccc1O (centres unmarked) [Compound 1290]
9	COc1ccccc1C1(c2ccccc2)C(=O)Nc2ccccc21 (centres unmarked) [Compound 1292]
16	O=C1Nc2ccccc2C1(c1ccccc1)c1ccc(O)cc1 (centres unmarked) [Compound 1295]
5	O=C1Nc2ccccc2C1(c1ccccc1)c1ccc(OCCO)cc1 (centres unmarked) [Compound 1299]

The compounds below were run on intracellular Ca^2+ stores (assay: Ca2+ release from intracellular stores (FURA-2AM loaded cells)). Details: not given.
Assay type: cell-based
Design: key to Ca^2+ (Ca^2+ release from intracellular stores): a “+” denotes release; a “+/−” denotes inconclusive
Outline: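 Ca2+ release scored in FURA-2AM loaded cells as "+" (release) or "+/−" (inconclusive); some compounds also tested with ER-targeted FRET Ca2+ sensors. Ca2+-depleting compounds were then tested for eIF2α phosphorylation by Western blot with phospho-specific anti-eIF2α antibody.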

SMILES	Ca^2+ (Ca^2+ release from intracellular stores)
CCc1ccc(O)c(C2(c3ccccc3)C(=O)Nc3ccccc32)c1 (centres unmarked) [Compound 1285]	+
CCCCCc1ccc(O)c(C2(c3ccccc3)C(=O)Nc3ccccc32)c1 (centres unmarked) [Compound 1286]	+
CCCCc1ccc(O)c(C2(c3ccccc3)C(=O)Nc3ccccc32)c1 (centres unmarked) [Compound 1287]	+
CCCCCCc1ccc(O)c(C2(c3ccccc3)C(=O)Nc3ccccc32)c1 (centres unmarked) [Compound 1288]	+
O=C1Nc2ccccc2C1(c1ccccc1)c1cc(C2CCCC2)ccc1O (centres unmarked) [Compound 1289]	+
O=C1Nc2ccccc2C1(c1ccccc1)c1cc(C2CCCCC2)ccc1O (centres unmarked) [Compound 1290]	+/−
COc1ccccc1C1(c2ccccc2)C(=O)Nc2ccccc21 (centres unmarked) [Compound 1292]	+/−
COc1cccc(C2(c3ccccc3)C(=O)Nc3ccccc32)c1 (centres unmarked) [Compound 1293]	+/−
O=C1Nc2ccccc2C1(c1ccccc1)c1ccc(O)cc1 (centres unmarked) [Compound 1295]	+
CC(C)Cc1ccc(C2(c3ccccc3)C(=O)Nc3ccccc32)cc1 (centres unmarked) [Compound 1297]	+
CCCCc1ccc(C2(c3ccccc3)C(=O)Nc3ccccc32)cc1 (centres unmarked) [Compound 1298]	+/−
O=C1Nc2ccccc2C1(c1ccccc1)c1ccc(OCCO)cc1 (centres unmarked) [Compound 1299]	+
CC(C)(C)c1ccc(C2(c3ccccc3)C(=O)Nc3ccccc32)cc1 (centres unmarked) [Compound 1349]	+
O=C1Nc2ccc(F)cc2C1(c1ccccc1)c1ccccc1 [Compound 1350]	+
COC(=O)c1ccc(Cl)c2c1NC(=O)C2(c1ccccc1)c1ccccc1 [Compound 1351]	+/−
O=C(O)c1ccc(Cl)c2c1NC(=O)C2(c1ccccc1)c1ccccc1 [Compound 1392]	+

What follows are compounds tested on eIF2α (assay: eIF2α phosphorylation measured by Western blot). Details: not given.
Assay type: cell-based
Text: As a non-limiting example, compounds 1272 and 1273 (set forth in Table 1) were synthesized starting from 3-bromoaniline, which upon condensation with hydroxylamine and chloral hydrate followed by concentrated sulfuric acid yielded an inseparable regioisomeric mixture of 4- and 6-bromo isatins. The addition of the two phenyl groups to the three position of the oxindole allowed easy chromatographic separation of the 4- and 6-bromo-3,3-diphenyloxindoles 1272 and 1273. Table 1 sets forth biological data for diaryloxindole compounds including, but not limited to 1272 and 1273. For Tables 1-14, Ca^2+ refers to Ca^2+ release from intracellular stores where a “+” denotes release and a “+/−” denotes inconclusive; eIF2α-P refers to phosphorylation of eIF2α measured by Western blot; SRB refers to the inhibitory concentration to reduce cell growth by 50% (IC50) for growth inhibition of A549 lung cancer cells; and n.d. is not determined.
Without intending to be bound by theory, the mechanism of action of translation initiation inhibitors is set forth in FIG. 1, and includes the depletion (complete or partial depletion) of intracellular calcium (Ca^2+) stores and phosphorylation of eIF2α. Compounds synthesized using the approaches described herein were screened for their ability to partially deplete intracellular Ca^2+ stores using FURA-2AM loaded cells (Benzaquen et al. (1995) Nature Medicine, 1:534, incorporated herein by reference in its entirety for all purposes). A limited subset of compounds were further screened for their ability to deplete endoplasmic reticulum (ER) Ca^2+. The Ca^2+ content of the ER was monitored using ER-targeted, Ca^2+ sensitive, recombinant proteins. These recombinant proteins emitted light by fluorescent resonance energy transfer (FRET) as a function of the Ca^2+ content of the medium. Such assays are previously described (Miyawaki, A.; Mizuno, H.; Llopis, J.; Tsien, R. Y.; Jalink, K. Cameleons as cytosolic and intra-organellar calcium probes, Oxford University Press: Oxford, London, 2001; pp 3-16, incorporated herein by reference in its entirety for all purposes). Compounds that depleted Ca^2+ were further evaluated for their ability to phosphorylate eIF2α. eIF2α phosphorylation was measured by Western blot analysis using the phospho-specific anti-eIF2α antibody, as previously described (Aktas et al. (1998) Proc. Natl. Acad. Sci. USA, 95:8280, incorporated herein by reference in its entirety for all purposes).

SMILES	eIF2α phosphorylation (in words)
O=C(O)c1ccc(Cl)c2c1NC(=O)C2(c1ccccc1)c1ccccc1 [Compound 1392]	improved eIF2α phosphorylation

Same assay, conditions: Western blot; unit or reference not given

SMILES	eIF2α-P (phosphorylation of eIF2α measured by Western blot)
CCc1ccc(O)c(C2(c3ccccc3)C(=O)Nc3ccccc32)c1 (centres unmarked) [Compound 1285]	2.96
CCCCCc1ccc(O)c(C2(c3ccccc3)C(=O)Nc3ccccc32)c1 (centres unmarked) [Compound 1286]	8.60
CCCCc1ccc(O)c(C2(c3ccccc3)C(=O)Nc3ccccc32)c1 (centres unmarked) [Compound 1287]	10.08
CCCCCCc1ccc(O)c(C2(c3ccccc3)C(=O)Nc3ccccc32)c1 (centres unmarked) [Compound 1288]	6.28
O=C1Nc2ccccc2C1(c1ccccc1)c1cc(C2CCCC2)ccc1O (centres unmarked) [Compound 1289]	6.49
O=C1Nc2ccccc2C1(c1ccccc1)c1cc(C2CCCCC2)ccc1O (centres unmarked) [Compound 1290]	8.60
COc1ccccc1C1(c2ccccc2)C(=O)Nc2ccccc21 (centres unmarked) [Compound 1292]	1.04
COc1cccc(C2(c3ccccc3)C(=O)Nc3ccccc32)c1 (centres unmarked) [Compound 1293]	1.30
O=C1Nc2ccccc2C1(c1ccccc1)c1ccc(O)cc1 (centres unmarked) [Compound 1295]	1.66
CC(C)Cc1ccc(C2(c3ccccc3)C(=O)Nc3ccccc32)cc1 (centres unmarked) [Compound 1297]	0.7
CCCCc1ccc(C2(c3ccccc3)C(=O)Nc3ccccc32)cc1 (centres unmarked) [Compound 1298]	0.45
O=C1Nc2ccccc2C1(c1ccccc1)c1ccc(OCCO)cc1 (centres unmarked) [Compound 1299]	0.71
CC(C)(C)c1ccc(C2(c3ccccc3)C(=O)Nc3ccccc32)cc1 (centres unmarked) [Compound 1349]	1.27
O=C1Nc2ccc(F)cc2C1(c1ccccc1)c1ccccc1 [Compound 1350]	1.16
COC(=O)c1ccc(Cl)c2c1NC(=O)C2(c1ccccc1)c1ccccc1 [Compound 1351]	1.35
O=C(O)c1ccc(Cl)c2c1NC(=O)C2(c1ccccc1)c1ccccc1 [Compound 1392]	2.76
